In this assay the test system is L6 rat myocyte cell line. The experiment in a line: [3H]-deoxyglucose uptake in the L6 rat myocyte cell line with or without insulin (Example 5, FIG. 5). It counts as cell-based. Conditions: insulin at 100 nM alone, p<0.001. The source says:
The L6 line (a line from the skeletal muscle of Rattus norvegicus provided by ATCC-LCC Promochem) was used. Glucose uptake in the presence of insulin with or without SAT2 was quantified using [^3H]-deoxyglucose. The L6 cell line is cultivated in DMEM (4.5 g/l glucose) supplemented with 10% fetal calf serum (FCS). For the glucose uptake experiments, the cells are inoculated in 12-well plates at a density of 10^4 cells/well. After three days of culture, the cells are differentiated in DMEM with 2% FCS for one week. The day of the experiment, the cells are deprived for 4 hours in DMEM without FCS and containing 0.1% BSA, and then they are incubated for 1 hour in a Krebs-Ringer buffer containing 1 g/l glucose and containing […] insulin with or without SAT2 at a concentration of 50 μg/ml or 100 μg/ml. The cells are then washed in Krebs-Ringer and then incubated in the presence of 0.5 μCi [^3H]-deoxyglucose in 1 ml Krebs-Ringer per well. Glucose uptake by the L6 cells is stopped by three washings in cold PBS and the cells are then lysed in 1 ml of a 0.1 N NaOH solution. Concentration in total protein is estimated by the Bradford method and radioactivity is measured using a β counter. The final results are expressed in cpm/mg/min. […] The effects on glucose uptake are measured in the presence of [^3H]-deoxyglucose for 5 minutes. […]

Insulin: the “increase in glucose capture” value was 30.4%.
